Test system: FR positive human xenograft models
Assay: Mouse imaging: ^99mTc biodistribution and microSPECT/CT
Assay type: in vivo
Conditions: intravenous, tumor-bearing mice
Procedure: Etarfolatide kits were used for the preparation of ^99mTc-chelated radioactive drug substance. Radiochemical purity of ^99mTc-etarfolatide was determined by HPLC attached to a radiodetector. ^99mTc-etarfolatide was investigated in vivo using mice bearing FR positive human xenograft models. Test articles were administered intravenously in mice via the lateral tail vein. ^99mTc biodistribution was determined by removing selected tissues and measuring their radioactivity content in an automatic gamma-counter. High resolution three dimensional images of the radiolabel were obtained on a dual microSPECT/CT system.

[NH-][C@@H](CNC(=O)CC[C@@H](NC(=O)c1ccc(NCc2cnc3nc(N)[nH]c(=O)c3n2)cc1)C(=O)O)C(=O)[N-][C@@H](CC(=O)O)C(=O)[N-][C@@H](C[S-])C(=O)O.[O]=[Tc+4] [^99mTc-etarfolatide]
Time after which levels in normal FR-negative tissues had cleared to near baseline: 4 to 8 h | Time tumor retention remained near maximum: approximately 18 hours | Time of peak tissue levels post injection (FR-expressing tumor and kidney): 1 h

— patent US10420850B2, “Method of imaging with a chelating agent” (ENDOCYTE, INC., priority 2015, dated 2019)
